Measured values taken from patent US20260176274A1, “ENAMINE N-OXIDE TOOLS FOR TARGET IDENTIFICATION APPLICATIONS” (DANA-FARBER CANCER INSTITUTE, INC., priority 2022, published 2026).

Experiments:
BRD2/3/4 [1] = test: Pulldown-MS chemoproteomics in HEK293T cell lysate, (+)-JQ1 probe; format: binding, human; details: filter 1 quantified peptide in 3 replicates; against competitor or enantiomer controls
Experimental: (§1) The same procedure as the “Streptavidin pull-down” was followed up to the wash steps. After the final wash, the supernatant was completely removed. Formamide elution buffer (95% v/v formamide, 5% v/v 100 mM sodium acetate, pH 10, 50 μL) was then added to the beads with gentle mixing. The beads were heated to 95° C. for 10 min, pelleted, and the supernatant was removed while hot and then allowed to cool to rt. The formamide elution was repeated a second time for a combined eluate volume of approximately 100 μL. The eluate samples were then submitted to the Dana-Farber TPD Core facility for further processing. […]
(§2) Peptides were analyzed on an Ultimate™ 3000 RSLCnano system coupled to a Tribrid series mass spectrometer (Thermo Fisher Scientific™). […]
(§3) RAW file processing, false discovery rate filtering (<1%), and protein roll-up and MS1 intensity-based label-free quantification (Minora algorithm) were achieved using Proteome Discoverer 2.5 (Thermo Fisher Scientific™). […] Peptides were quantified by precursor ion abundance and summed across proteins.
(§4) Proteins were filtered to include those with three or more unique peptides quantified across four replicate treatments, unless otherwise stated. […] All peptides of target proteins quantified at the single peptide level were manually inspected to ensure accuracy in quantification.

BRD2/3/4 [2] = target: T1, BRD2/3/4 (Homo sapiens, UniProt O60885); test: as above; format: binding; details: filter 3 quantified peptides in 3 replicates
T1 construct: In Vitro BARS Labeling of Endogenous Target Proteins in Cell Lysate; endogenous in cells; host or cells: HEK293T lysate
Experimental: as §1, §2, §3, §4

BRD4 = target: T2, BRD4 (Homo sapiens, UniProt O60885); test: In cellulo BARS labeling in live HEK293T cells, immunoblot against BRD4; format: cell-based; details: probe 5 μM, B2(OH)4 100 μM 10 min
T2 construct: In Cellulo BARS Labeling of Endogenous Target Proteins; endogenous in cells; host or cells: HEK293T
Experimental: HEK293T cells were cultured in DMEM containing 10% FBS (Sigma), 100 units/mL penicillin, and 0.1 mg/mL streptomycin (Sigma) in a humidified chamber at 37° C. under an ambient atmosphere with 5% CO2. After culturing to >80% confluency in 150 mm plates, the plates were removed from the incubator, the media was aspirated, and the cells were trypsinized at 37° C. with 0.25% trypsin, 0.1% EDTA in HBSS (3 mL). After 3 min, complete growth medium (7 mL) was added to the detached cells, and the cell suspension was transferred to a 50 mL centrifuge tube. Cells were pelleted (400×g, 4 min, 23° C.) and washed with 2×20 mL PBS, pH 7.4. At this point, the density of the cell suspension in PBS was determined by the trypan blue exclusion method. The cells were pelleted once more, and the volume of PBS was adjusted to produce a cell suspension with a final density of 2×10^7 cells/mL. The cell suspension was aliquoted into 2 mL microcentrifuge tubes (3×1 mL, 2×10^7 cells each). […] Competitor 21′ (50 μM final concentration, from a 500 mM stock in DMSO) was also added to the third tube. The samples were incubated at 37° C. with end-over-end rotation. After 2 h of incubation, the cells were pelleted (400×g, 4 min, 23° C.) and washed once with PBS, pH 7.4.

With `C#CCCC[N+](C)([O-])/C(Br)=C/C(Cl)CCCC(=O)NCCCCCCNC(=O)C[C@@H]1N=C(c2ccc(Cl)cc2)c2c(sc(C)c2C)-n2c(C)nnc21` (stereo partly drawn) [22′a, (Z)-1-Bromo-3-chloro-7-((6-(2-((S)-4-(4-chlorophenyl)-2,3,9-trimethyl-6H-thieno[3,2-f][1,2,4]triazolo[4,3-al][1,4]diazepin-6-yl)acetamido)hexyl)amino)-N-methyl-7-oxo-N-(pent-4-yn-1-yl)hept-1-en-1-amine oxide] the chemoproteomics hits (BRD2/3/4 [1]) was “BRD2/3/4 were identified as hits”, the chemoproteomics protein identified (BRD2/3/4 [2]) was “BRD4 was identified” and the “target identification in live HEK293T cells (BRD4)” value (BRD4) was “successfully executed”.
